Assays:
Experiment in all cases: relative viability (nuclei count vs DMSO), 5 days (fraction); higher = more cells survive
[1] = compound: C[C@]12O[C@H](C[C@]1(O)CO)n1c3ccccc3c3c4c(c5c6ccccc6n2c5c31)CNC4=O [Lestaurtinib] + N=C(N)NC(=N)NCCc1ccccc1 [Phenformin] (partner 250 µM)
Outline: (§1)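 Each reported value is a median over duplicate plates. It expresses relative viability: treated-well nuclei count divided by vehicle-well nuclei count. Lung cancer cell lines in 1536-well plates were dosed by pin tool a day after seeding, alone with one drug or with a fixed anchor-drug dose plus five library-drug doses (not always all listed) in √10 steps, and nuclei were counted after 5 days.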

[2] = compound: C[C@]12O[C@H](C[C@]1(O)CO)n1c3ccccc3c3c4c(c5c6ccccc6n2c5c31)CNC4=O [Lestaurtinib] + CC1(C)CCC(c2ccc(Cl)cc2)=C(CN2CCN(c3ccc(C(=O)NS(=O)(=O)c4ccc(N[C@H](CCN5CCOCC5)CSc5ccccc5)c(S(=O)(=O)C(F)(F)F)c4)cc3)CC2)C1 [Navitoclax] (partner 0.5 µM)
Outline: as §1

[3] = compound: C1/C(=C\C2=CC=CS2)/C(=O)/C(=C/C3=CC=CS3)/C1 + CC(C)C[C@H](NC(=O)[C@H](Cc1ccccc1)NC(=O)c1cnccn1)B(O)O [Bortezomib] (partner 0.002 µM)
Outline: as §1

[4] = compound: C1/C(=C\C2=CC=CS2)/C(=O)/C(=C/C3=CC=CS3)/C1 + C[C@@H](Oc1cc(-c2cnn(C3CCNCC3)c2)cnc1N)c1c(Cl)ccc(F)c1Cl [Crizotinib] (partner 1 µM)
Outline: as §1

## UMC-11
[1]; first compound 0.005 µM
  relative viability: 0.359
[1]; first compound 0.01581 µM
  relative viability: 0.327
[1]; first compound 0.05 µM
  relative viability: 0.239
[1]; first compound 0.1581 µM
  relative viability: 0.176
[1]; first compound 0.5 µM
  relative viability: 0.144
[2]; first compound 0.005 µM
  relative viability: 0.294
[2]; first compound 0.01581 µM
  relative viability: 0.275
[2]; first compound 0.05 µM
  relative viability: 0.251
[2]; first compound 0.1581 µM
  relative viability: 0.144
[2]; first compound 0.5 µM
  relative viability: 0.143
[3]; first compound 0.2 µM
  relative viability: 0.717
[3]; first compound 0.6325 µM
  relative viability: 0.579
[3]; first compound 2 µM
  relative viability: 0.639
[3]; first compound 20 µM
  relative viability: 0.597
[4]; first compound 0.2 µM
  relative viability: 0.62
[4]; first compound 0.6325 µM
  relative viability: 0.685
[4]; first compound 2 µM
  relative viability: 0.687
[4]; first compound 20 µM
  relative viability: 0.571
